Earlier results on one molecule are cited in US20140010903A1, “Curcuminoid composition with enhanced bioavailability and a process for its preparation” (Akay Flavours & Aromatics Pvt Ltd., priority 2012, published 2014).

Take `O=C(/C=C/C=C/c1ccc2c(c1)OCO2)N1CCCCC1` [piperine]: the “Toxicity in animal studies” value is given as “toxic”.
